From patent US20050165112A1, “Therapeutic agent for inflammatory intestinal diseases containing hydroxamic acid compound as active ingredient” (priority 2002, published 2005)

Tests used:
Format in all cases: in vivo
[1] = system: acetic acid-induced colitis in male SD (CD) IGS rats; assay: Acetic acid-induced colitis model; settings: rat, 0.3 or 3 mg/kg/day, 24 hours after colitis induction
Protocol: Male SD (CD) IGS rats (7 weeks old) were anesthetized with sodium pentobarbital. Colitis was induced by intracolonic instillation of 0.25 mL of 5% acetic acid with a disposable sonde for oral administration for mouse, which is attached to 1 mL syringe (Terumo). The sonde was inserted to 5 cm from anus and acetic acid was infused for 10 seconds. After the removal of the sonde, the anus was plugged for 1 minute. Then the colon was washed with approximate 10 mL of physiological saline with a disposable sonde for oral administration for rat, which was attached to 50 mL syringe (Terumo), and the sonde was inserted to 8 cm from anus.
The test compound or vehicle was administered to animals before 30 minutes and after 8 hours of the colitis induction, at each time half of a dairy dose was administered.
After 24 hours of colitis induction, all colons which from anus to cecum, were removed, the content was washed away with saline solution. After trimming of the washed colon, the colon was cut at 9 cm from anus, wiped out the solution, and weighed with electronic measure. Then the injured area (mm^2) of dissected colon was measured by image analysis.
N-hydroxy-5-hydroxy-2 (S)-methyl-4(S)—(4-phenoxybenzoyl)aminopentanamide (compound (1)) was used as a test compound. Compound (1) was administered to animals at doses of 0.3 or 3 mg/kg/day. […]

[2] = system: TNBS-induced colitis in male SD (CD) IGS rats; assay: TNBS-induced colitis model; settings: rat, 1, 3 and 10 mg/kg/day, three days after TNBS induction
Protocol: Male SD (CD) IGS rats (7 weeks old) were anesthetized with sodium pentobarbital. A flexible sonde for oral administration was inserted to 8 cm from the anus. Colitis was induced by intracolonic instillation of 50 mg of 2,4,6-trinitrobenzenesulfonic acid (TNBS) dissolved in 0.25 mL of 20% ethanol, and the anus was plugged and leaved for 2 hours. Test compound was administered at 30 minutes before and 8 hours after the TNBS induction, since the next day of TNBS induction they were administered half of a dairy dose at each time, twice daily in the morning and the evening. Three days later the animals were sacrificed with bleeding under ether anesthetization. All colons were removed, the contents was washed out with saline solution, and then measured the length. After the trimming of the colons, 9 cm segment from the anus was obtained, the water was removed on the paper, and the wet weight was measured with electric scale.
N-hydroxy-5-ethoxymethyloxy-2 (S)-methyl-4(S)— (4-phenoxylbenzoil)aminopentanamide (compound (2)) was used as a test compound. FIG. 3 and FIG. 4 show the effects of compound (2) at the doses of 1, 3 and 10 mg/kg/day on the length and the wet weight of colons respectively.

[3] = system: rat; assay: Single oral administration toxicity to rat
Protocol: The toxicity of the compounds of the present invention is very low and therefore, the compounds may be considered safe for pharmaceutical use. For example, a minimum of lethal dose of the compound (2) by single oral administration to rat was 2000 mg/kg.

SMILES | injured area ([1]; FIG. 1) | increase in intestine edema (wet weight of colon) ([1]; FIG. 2) | shrinkage of colon (length of all colons) ([2]; FIG. 3) | increase in intestine edema (wet weight of colon) ([2]; FIG. 4) | minimum of lethal dose [3]
C[C@@H](C[C@@H](CO)NC(=O)c1ccc(Oc2ccccc2)cc1)C(=O)NO [compound (1), N-hydroxy-5-hydroxy-2 (S)-methyl-4(S)—(4-phenoxybenzoyl)aminopentanamide] | suppressive tendency to the injured area | suppressed the increase in intestine edema | – | – | –
CCOCOC[C@H](C[C@H](C)C(=O)NO)NC(=O)c1ccc(Oc2ccccc2)cc1 [compound (2), N-hydroxy-5-ethoxymethyloxy-2 (S)-methyl-4(S)— (4-phenoxylbenzoil)aminopentanamide] | – | – | suppressed the shrinkage of colon | suppressed the shrinkage of colon and the increase in intestine edema | 2000 mg/kg
